Three molecules from publication PMC10794137, “A new antibiotic traps lipopolysaccharide in its intermembrane transporter” (Nature, 2024) can be followed below.

The Ki is the equilibrium dissociation constant of an inhibitor or competing ligand from its target.

Experiment [1] addresses His-tagged LptB2FG (ablLptB2FG) in the presence of LPS (Acinetobacter baylyi, UniProt Q6FFD6+Q6FFD7). In words: biochemical. The format is binding. As to the method:
The binding of radioligand [^3H]-RO7223280 to ablLptB2FG and ablLptB2FGC was measured by bead-based SPA. All steps were performed in SEC buffer (20 mM Tris pH 7.5, 300 mM NaCl, 5% glycerol, 0.5 mM TCEP, 0.05% DDM ± 10 µM E.coli J5 LPS(Rc) […] (Enzo Life Sciences)) and at 4 °C unless otherwise indicated. Purified protein was first incubated with Copper PVT HIS-tag beads (Perkin Elmer) for 1.5 h under gentle rotation. Twelve radioligand concentrations were added to the PVT–protein mix and incubated for another 30 min. […] The SPA plates were sealed (TopSeal, Perkin Elmer) and stored at 4 °C overnight. Before the measurement, plates were mixed on a shaker for 20 min, 750 rpm at room temperature and the seal was thoroughly wiped with antistatic spray to reduce electrostatic events. Scintillation data were recorded with a Topcount NXT C384, in the form of three independent replicates each consisting of three technical triplicates. Specific binding was calculated by subtracting non-specific binding raw counts from total binding raw counts. The dissociation constant Kd and standard deviation of the three independent replicates are reported and were calculated by the GraphPad Prism ‘One site – specific binding’ tool.
Displacement values were normalized by including nine wells containing […] (defined as 100% competition) and nine wells containing 8 uM radioligand only (defined as 0% competition). […] The Hill coefficient was used as a quality control metric (theoretically, nH = 1 for a 1:1 competitive inhibitor) and determined with the ‘[Inhibitor] vs. response -- Variable slope (four parameters)’ tool.

Experiment [2] deals with LptB2FG. In words: ATPase assay (molybdate), LptB2FG proteoliposomes. As to conditions: LptB2FG liposomes, in presence of LPS. The format is biochemical, Acinetobacter baylyi. As for the experimental part: (§1) Proteoliposomes were prepared as described previously. Aqueous E. coli polar lipid extract (Avanti Polar Lipids) (30 mg ml^−1) and aqueous LPS from E. coli EH100 (Ra mutant; Sigma) (2 mg ml^−1) were sonicated briefly for homogenization. For experiments testing the effect of LPS structure, we used LPS isolated from either GKM374 (BL21DE3 eptA::catR arnA::kanR eptC::gentR) or TXM418 (BL21DE3 eptA::catR arnA::FRT eptB::gentR lpxM::kanR) as described previously. A mixture of 20 mM Tris-HCl (pH 8.0), 150 mM NaCl, 7.5 mg ml^−1 of E. coli polar lipids, 0.5 mg ml^−1 of LPS and 0.25% DDM was prepared and kept on ice for 10 min. Purified LptB2FGC or LptB2FG was added to a final concentration of 0.86 μM and the mixture was left on ice for 20 min. The mixture was diluted 100-fold with cold 20 mM Tris-HCl (pH 8.0) and 150 mM NaCl and kept on ice for 20 min. The proteoliposomes were pelleted (300,000g, 2 h, 4 °C), resuspended in 20 mM Tris-HCl (pH 8.0) and 150 mM NaCl, diluted 100× and centrifuged (300,000g, 2 h, 4 °C). The pellets were resuspended in a mixture of 20 mM Tris-HCl (pH 8.0), 150 mM NaCl and 10% glycerol (250 μl per 100 μl of the original predilution solution), homogenized by sonication, flash frozen and stored at −80 °C until use.
ATPase assays were done using a modified molybdate method, as previously reported, with slight modifications. Assays used 30% proteoliposomes (by volume) in a mixture containing 50 mM Tris-HCl (pH 8.0), 500 mM NaCl, 10% glycerol and 2 mM MgCl2. Proteoliposome-containing reaction mixture was incubated with drug at room temperature for 10 min, as applicable. Reactions were initiated by the addition of ATP to a final concentration of 5 mM and run at 30 °C. Aliquots (5 µl) were taken at 0, 15, 30 and 45 min. […] The amounts of Pi were determined using a colorimetric method and potassium phosphate was used as a standard. […] The absorbance at 850 nm was measured using a Spectramax Plus 384 (Molecular Devices) after 20 min. Error bars indicate the standard deviations of the average rates measured over three biological replicates.

Experiment [3] relates to LptB2FGC. In words: ATPase assay (molybdate), LptB2FGC proteoliposomes. The format is biochemical, Acinetobacter baylyi. As to conditions: for Effect on ATPase activity: LptB2FGC liposomes, in presence of LPS. As to the method:
as §1
ATPase assays were done using a modified molybdate method, as previously reported, with slight modifications. Assays used 30% proteoliposomes (by volume) in a mixture containing 50 mM Tris-HCl (pH 8.0), 500 mM NaCl, 10% glycerol and 2 mM MgCl2. Proteoliposome-containing reaction mixture was incubated with drug at room temperature for 10 min, as applicable. Reactions were initiated by the addition of ATP to a final concentration of 5 mM and run at 30 °C. Aliquots (5 µl) were taken at 0, 15, 30 and 45 min. Reactions were quenched with an equal volume of 12% SDS. The amounts of Pi were determined using a colorimetric method and potassium phosphate was used as a standard. Reagents were obtained from Sigma-Aldrich. After the addition of SDS, a mixture containing 10 µl of 30 mg ml^−1 of ascorbic acid, 0.5 N HCl, 5 mg ml^−1 of ammonium molybdate and 6% SDS was added. The samples were incubated at room temperature for 7 min and 15 µl of an aqueous solution containing 20 mg ml^−1 of sodium citrate tribasic dihydrate, 2 mg ml^−^1 of sodium arsenite and 2% (vol/vol) acetic acid was added. The absorbance at 850 nm was measured using a Spectramax Plus 384 (Molecular Devices) after 20 min. Error bars indicate the standard deviations of the average rates measured over three biological replicates.

Experiment [4] deals with LptB2FG-ΔTM-C. The experiment can be described thus: ATPase assay (molybdate), LptB2FG-ΔTM-C proteoliposomes. As to conditions: LptB2FG-ΔTM-C liposomes, in presence of LPS. In kind it is biochemical, Acinetobacter baylyi.
In experiment [5] the test system is LptB2FGΔTM-LptC. The experiment can be described thus: LPS release assay, LptB2FG-ΔTM-C. The conditions noted are these: complex lacking LptC TM helix. The format is biochemical, Acinetobacter baylyi. As to the method:
as §1
LptC(ΔTM) was purified largely as previously described. Briefly, Bl21 (λDE3) E. coli cells containing pET22/42-LptC(ΔTM)-His7 were grown to an OD600 of approximately 0.6 at 37 °C in LB media containing 50 μg ml^−1 of carbenicillin. Cells were then induced with 50 μM IPTG; allowed to grow for 2 h; harvested and resuspended in lysis buffer (50 mM Tris pH 7.4, 300 mM NaCl, 0.1 mM EDTA). Lysozyme, DNaseI and PMSF were added to final concentrations of 100 µg ml^−1, 50 µg ml^−1 and 1 mM, respectively. Cells were homogenized and subjected to passage through an EmulsiFlex-C3 high-pressure cell disruptor three times. The cell lysate was centrifuged (10,000g, 10 min) and the supernatant was further centrifuged (100,000g, 1 h). […]
The amounts of release of LPS from proteoliposomes to LptA were measured as previously described. […]

Sequence of His-tagged LptB2FG (ablLptB2FG) in the presence of LPS (Q6FFD6 entry or part of it): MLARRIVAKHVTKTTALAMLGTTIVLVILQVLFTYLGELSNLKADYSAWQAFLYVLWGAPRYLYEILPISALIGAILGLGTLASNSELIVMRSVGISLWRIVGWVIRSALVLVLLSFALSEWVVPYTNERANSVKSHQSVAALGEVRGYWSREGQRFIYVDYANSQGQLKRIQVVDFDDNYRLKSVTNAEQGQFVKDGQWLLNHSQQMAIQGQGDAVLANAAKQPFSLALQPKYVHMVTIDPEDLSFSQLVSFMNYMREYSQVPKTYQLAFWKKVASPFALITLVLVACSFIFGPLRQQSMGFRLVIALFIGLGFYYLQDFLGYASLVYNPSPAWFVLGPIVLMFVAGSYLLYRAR
Sequence of His-tagged LptB2FG (ablLptB2FG) in the presence of LPS (Q6FC66 entry or part of it, further chain): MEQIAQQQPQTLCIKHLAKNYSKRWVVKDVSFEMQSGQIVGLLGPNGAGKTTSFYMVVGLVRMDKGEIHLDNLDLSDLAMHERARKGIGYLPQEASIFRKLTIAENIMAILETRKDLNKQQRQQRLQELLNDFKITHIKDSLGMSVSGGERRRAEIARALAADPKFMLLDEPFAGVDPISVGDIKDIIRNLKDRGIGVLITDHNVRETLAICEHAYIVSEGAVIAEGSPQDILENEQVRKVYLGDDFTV
Sequence of His-tagged LptB2FG (ablLptB2FG) in the presence of LPS (Q6FFD7 entry or part of it): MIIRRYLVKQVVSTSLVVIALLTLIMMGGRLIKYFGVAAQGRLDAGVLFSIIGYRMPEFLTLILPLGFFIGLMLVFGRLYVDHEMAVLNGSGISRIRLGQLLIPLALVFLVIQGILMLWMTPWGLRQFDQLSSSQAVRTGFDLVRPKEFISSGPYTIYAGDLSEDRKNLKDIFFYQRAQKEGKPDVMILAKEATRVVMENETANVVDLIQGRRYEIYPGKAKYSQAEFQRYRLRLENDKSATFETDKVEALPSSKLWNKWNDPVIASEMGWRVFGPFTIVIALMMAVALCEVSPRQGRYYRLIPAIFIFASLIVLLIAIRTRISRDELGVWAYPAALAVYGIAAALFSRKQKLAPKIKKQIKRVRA

Turning to `CN1C(=O)[C@H](CCCCN)NC(=O)[C@H](CCCN)NCc2cccnc2Sc2c(Cl)ccc(-c3ccc(N)nc3)c2CNC(=O)[C@@H]1Cc1c[nH]c2ccccc12` [Compound 1], the inhibitory constant (Ki) in experiment [1] was 35 nM. Besides, the “Effect on ATPase activity” value in experiment [2], in experiment [3] and in experiment [4] was “increases the ATPase activity” each time. Besides, the “Effect on ATPase activity with ΔLpxM LPS” value in experiment [3] (LptB2FGC liposomes with LPS isolated from a ΔLpxM strain) is listed as “resistant”. Moreover, in experiment [5], the “Inhibition of LPS transport to LptA” value is recorded as “inhibited”.

Turning to `CN1C(=O)[C@H](CCCCN)NC(=O)[C@H](CCCN)NCc2cccnc2Sc2cccc(-c3ccc(C(=O)O)cc3)c2CNC(=O)[C@@H]1Cc1c[nH]c2ccccc12` [Compound 2, Zosurabalpin], in experiment [1], the Ki worked out at 35 nM. Besides, the “Effect on ATPase activity” value in experiment [2], in experiment [3] and in experiment [4] was “increases the ATPase activity” each time. Also, the “Inhibition of LPS transport to LptA” value in experiment [5] is “inhibited”.

As for `CN1C(=O)[C@H](CCCCN)NC(=O)[C@H](CCCN)NCc2cccnc2Sc2c(Cl)ccc(Cl)c2CNC(=O)[C@@H]1Cc1c[nH]c2ccccc12` [Compound 3], in experiment [1], the inhibition constant (Ki) worked out at 56 nM. Further, the “Effect on ATPase activity” value in experiment [2] is “increases the ATPase activity”; in experiment [3], “does not affect the ATPase”; in experiment [4], “increases the ATPase activity”. The “Inhibition of LPS transport to LptA” value in experiment [5] was “inhibited”.
